According to patent US20200222418A1, “USE OF PHENOTHIAZINE DERIVATIVE IN THE TREATMENT OF INFECTION CAUSED BY BACTERIA CARRYING TYPE IV PILI” (priority 2017, published 2020):

Legend:
[1] = test system: N. meningitidis Nm2C4.3 strain; assay: Bactericidal activity, colony forming unit count after treatment in liquid culture; type: cell-based, Neisseria meningitidis; settings: 15 min; for bactericidal effect: Gentamicin 150 μg/ml, Trifluoperazine 10 to 50 μM
Procedure: N. meningitidis Nm2C4.3 strain grown in liquid culture at 10^7 CFU/ml were treated with increasing concentrations of Trifluoperazine (10 to 50 μM) or Gentamicin (150 μg/ml) for 15 minutes (A) Bactericidal activity was determined by the count of colony forming units on GCB agar plates 24 h after treatment. (B) Images of the non-treated bacteria or bacteria treated with 30 μM TFP grown for 24 h on GCB agar plates.
Nm2C4.3, a piliated capsulated Opa^−Opc^− variant of the serogroup C meningococcal clinical isolate 8013, was cultured in Dulbecco's Modified Eagle Medium (DMEM) 4.5 g/L-Glutamax media 0.1% BSA during two hours at 37° C. 5% CO2. A bacterial suspension at optical density (OD) 0.1 was then distributed in 24-well plate (1 ml/well). After 1 hour of incubation, Trifluoperazine (Sigma #T8516, stock solution in PBS) was added to obtain final concentrations of 10, 20, 30, 40, and 50 μM. Gentamicin (150 μg/ml in DMEM) and PBS alone were used as controls. After 15 min treatment, serial dilutions were performed in physiological water and 100 μl of each dilution were plated on Petri dishes containing GCB solid media (BD, Difco GC media) containing supplements, incubated overnight and the colony forming units were counted.

[2] = test system: N. meningitidis 2C4.3 wild type strain type IV pili; assay: Surface expression of type IV pili by transmission electron microscopy, wild type; type: cell-based, Neisseria meningitidis; settings: 50 μM Trifluoperazine for 30 minutes, wild type 2C4.3
Procedure: N. meningitidis 2C4.3 wild type strain and the isogenic derivative mutant PilT ([…]PiIT) were grown in liquid culture […] electron microscopy. Arrows point at bundles of type IV pili expressed at the bacterial surface.
N. meninigitidis 2C4.3 strain and the isogenic derivative mutant PilT, where the pilT gene was interrupted by an erythromycin-resistance cassette (Pujol et al., 1999), were grown in suspension in DMEM medium supplemented with 10% heat-inactivated fetal calf serum. PilT belongs to a highly conserved protein family homologous to AAA-type motor proteins and is proposed to cause the retraction of type IV pili by disassembling the pilin subunits at the base of the fiber (Morand et al., 2004). […] The effect on bacterial aggregates were visualized over time using a phase-contrast microscope or the bacterial suspensions were fixed in 4% Paraformaldehyde for 10 min, centrifuged at 1000 rpm for 5 minutes and the bacterial pellets washed in PBS. After negative staining with 1% phosphotungstic acid, bacteria were analysed by transmission electron microscopy, using a JEOL 1011 microscope.

[3] = test system: N. meningitidis 2C4.3 PilT mutant type IV pili; assay: Surface expression of type IV pili by transmission electron microscopy, PilT mutant; type: cell-based, Neisseria meningitidis; settings: 50 μM
Procedure: N. meningitidis 2C4.3 wild type strain and the isogenic derivative mutant PilT ([…]PiIT) were grown in liquid culture at 10^7 CFU/ml for 2 h to form bacterial aggregates and then treated with 50 μM Trifluoperazine for 15 minutes before analysis by transmission electron microscopy. Arrows point at bundles of type IV pili expressed at the bacterial surface.
N. meninigitidis 2C4.3 strain and the isogenic derivative mutant PilT, where the pilT gene was interrupted by an erythromycin-resistance cassette (Pujol et al., 1999), were grown in suspension in DMEM medium supplemented with 10% heat-inactivated fetal calf serum. PilT belongs to a highly conserved protein family homologous to AAA-type motor proteins and is proposed to cause the retraction of type IV pili by disassembling the pilin subunits at the base of the fiber (Morand et al., 2004). After 2 h of growth, Trifluoperazine (or control vehicle) was added at 50 μM for 20 min. The effect on bacterial aggregates were visualized over time using a phase-contrast microscope or the bacterial suspensions were fixed in 4% Paraformaldehyde for 10 min, centrifuged at 1000 rpm for 5 minutes and the bacterial pellets washed in PBS. After negative staining with 1% phosphotungstic acid, bacteria were analysed by transmission electron microscopy, using a JEOL 1011 microscope.

[4] = test system: Nm2C4.3 adhesion to human dermal microvascular endothelial cells (HDMECs); assay: Adhesion of pretreated meningococci to endothelial cells; type: cell-based, Neisseria meningitidis; settings: bacteria pre-treated with 30 μM for 30 minutes
Procedure: Nm2C4.3 grown in suspension were pretreated in the absence or in the presence of 30 μM Trifluoperazine for 30 minutes before adhesion to human dermal microvascular endothelial cells (HDMECs) for 30 minutes. Infection was allowed to proceed for further 30, 60 or 90 minutes before fixation and immunostaining using anti-Nm2C4.3 antibody and Alexa Fluor 633 Phalloidin. (A) Representative fluorescence microscopy showing bacterial colony (white dots) formed at the surface of the endothelial cells. (B) Quantification of the bacterial colonization was performed using Image J software.

[5] = test system: HBMECs infected with meningococci; assay: PECAM-1 recruitment at bacterial adhesion sites in infected HBMEC; type: cell-based, human; settings: 5 μM for 2 h during infection
Procedure: (A) Monolayers of HBMECs were non-infected or infected for 2 h with meningococci and the effect on the localisation of the endothelial cell junction proteins PECAM-1 and […]-catenin was analysed by immunofluorescence analysis. Arrows point at PECAM-1 molecules recruited at bacterial adhesion sites (B) HBMECs were infected for 2 h with meningococci in the presence or in the absence of 5 μM Trifluoperazine and the effect on junctional PECAM-1 and on the endothelial cell cytoskeleton remodelling (Ezrin, Actin) was analysed by immunofluorescence analysis. (C) Quantification of Actin and PECAM-1 recruitment at sites of bacterial adhesion was performed using Image J software.
When indicated, HBMECs were grown on Thermanox coverslips coated with gelatin 2% for 2 days to reach confluency. Cells were then infected as above described in the presence or in the absence of 5 μM Trifluoperazine for 2 h. Cells were washed and fixed in 4% paraformaldehyde and immunolabelling was performed with a polyclonal antisera raised anti-Nm2C4.3 strain, anti-human PECAM-1 mouse monoclonal, clone HEC7 (ABCAM ab119339) or rabbit polyclonal 177 raised against PECAM-1, obtained from WA Muller (Northwestern University, Chicago, Ill., US), anti-0 catenin (05-482, UBI), polyclonal antisera raised against Ezrin, Alexa Fluor 633 Phalloidin. […] Quantifications were done using ImageJ software (NIH).

[6] = test system: Nm2C4.3 colonization of human brain vessels; set-up: species or system Neisseria meningitidis; settings: 40 μM for 30 min
Procedure: A. Immunofluorescence analysis of CD31 (green), N. meningitidis colonies (red) and nucleus (blue) in the cortical region of serial brain sections from the same donor infected with Nm2C4.3 wild-type strain for 1 h, then treated with Trifluoperazine (40 μM for 30 min) or PBS alone, as a control. Scale bars, 20 μm. Images are representative of 2 different human brain sections. B. Mean±s.e.m. of the vascular colonization index. Analysis of 50 sections per brain section, n=2 sections per condition. ***P<0.001, one-way ANOVA.
In situ infection of fresh human brain sections was performed as described previously (Bernard et al, 2014). […] Adherent meningococci were detected by immunofluorescence analysis: brain sections were incubated with the following primary antibodies for 2 h in PBS/BSA 0.1%: monoclonal anti-human CD31/PECAM-1 mouse monoclonal antibody (clone HEC7, ABCAM, ab119339) and a rabbit polyclonal serum anti-Nm 2C4.3 strain (1:3000). […] Entire samples were scanned using a Lamina (Perkin Helmer) and were further analysed using confocal microscopy (spinning disk Leica, 63x). Quantification analysis of the images (n=50 per section) was performed using ImageJ software (NIH). […]

Structure (SMILES)	bactericidal effect [1]	viable count of the culture ([1]; Trifluoperazine 10 to 30 μM, culture contained 10^7 CFU/ml)	type IV pili expressed on bacterial surface [2]	surface expression of type IV pili of PilT mutant [3]	adhesion to and colony formation at the endothelial cell surface [4]	PECAM-1 recruitment at bacterial adhesion sites [5]	bacterial colonization [5]	dispersal of meningococcal microcolonies in infected brain sections [6]
CN[C@@H]1[C@@H](O)C(O[C@@H]2[C@@H](O)[C@H](O[C@H]3O[C@H]([C@@H](C)NC)CC[C@H]3N)[C@@H](N)C[C@H]2N)OC[C@]1(C)O (stereo partly drawn) [Gentamicin, (3R,4R,5R)-2-{[(1S,2S,3R,4S,6R)-4,6-diamino-3-{[(2R,3R,6S)-3-amino-6-[(1R)-1-(methylamino)ethyl]oxan-2-yl]oxy}-2-hydroxycyclohexyl]oxy}-5-methyl-4-(methylamino)oxane-3,5-diol]	killed all bacteria							
CN1CCN(CCCN2c3ccccc3Sc3ccc(C(F)(F)F)cc32)CC1 [Trifluoperazine]	moderate bactericidal effect	10^6 CFU/ml	no longer observed	did not affect	did no longer adhere to and/or form bacterial colony	prevented PECAM-1 recruitment	did not affect bacterial colonization	induced the dispersal
